# Data: ChEMBL document CHEMBL1138287, “Stereoselective synthesis of a novel 2-aza-7-oxabicyclo[3.3.0]octane as neurokinin-1 receptor antagonist” (Bioorg Med Chem Lett, 2007)
# Tests used:
# [1] = molecular target: Voltage-gated L-type calcium channel (Rattus norvegicus, UniProt P22002+Q02485+P27732); assay: Displacement of [3H]desmethoxyverapamil from verapamil binding site of L type calcium channel in rat heart
# Cavia porcellus [2] = assay: Antagonist activity in guinea pig ureter assessed as inhibition of capsaicin-induced plasma extravasation at 10 mg/kg, po; assay type: functional
# Substance-P receptor = Substance-P receptor (Homo sapiens, UniProt P25103); assay: Displacement of [3H]substance P from NK1 human receptor expressed in IM9 cells; assay type: cell-based, IM-9
# Chain of Substance-P receptor (P25103 whole entry): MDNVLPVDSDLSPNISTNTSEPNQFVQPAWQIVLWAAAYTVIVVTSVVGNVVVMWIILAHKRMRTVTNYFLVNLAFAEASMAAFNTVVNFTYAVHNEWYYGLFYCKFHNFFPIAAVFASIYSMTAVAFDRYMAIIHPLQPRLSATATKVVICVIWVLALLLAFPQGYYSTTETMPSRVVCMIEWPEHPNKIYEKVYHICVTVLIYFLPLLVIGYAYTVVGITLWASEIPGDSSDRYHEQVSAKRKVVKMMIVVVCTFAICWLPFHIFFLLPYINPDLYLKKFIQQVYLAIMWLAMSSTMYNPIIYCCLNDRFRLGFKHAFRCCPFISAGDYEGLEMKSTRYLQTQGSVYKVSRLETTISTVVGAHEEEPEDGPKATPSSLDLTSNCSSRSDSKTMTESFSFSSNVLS
# Cavia porcellus [3] = species on record: Cavia porcellus; assay: Antagonist activity in guinea pig ureter assessed as inhibition of capsaicin-induced plasma extravasation; assay type: functional
# Cavia porcellus [4] = assay: Antagonist activity in guinea pig ureter assessed as inhibition of capsaicin-induced plasma extravasation at 1 mg/kg, po; assay type: functional
SMILES,IC50 [1] [nM],inhibition in vivo at 10 mg/kg (Cavia porcellus [2]) [%],IC50 (Substance-P receptor) [nM],ED50 (Cavia porcellus [3]) [mg/kg],inhibition in vivo at 1 mg/kg (Cavia porcellus [4]) [%]
COc1ccc(OC(F)(F)F)cc1CN[C@H]1[C@@H]2COC[C@@H]2N[C@H]1c1ccccc1 (racemic),> 1000,94,0.22,1,10
COc1ccccc1CN[C@H]1[C@@H]2CCC[C@@H]2N[C@H]1c1ccccc1 (racemic),> 1000,–,3.4,–,–
